The text below walks through data of US20240287130A1, “COMPOUND FOR ALCOHOLIC LIVER INJURY, PREPARATION METHOD, COMPOSITION, FOOD AND USE” (CHENGDU INNOHEPOREM BIOTECH CO., LTD., priority 2021, published 2024).

Series [1] relates to mouse alcoholic liver injury model. Nature of the series: Effect of product (a) on alcoholic liver injury (Example 6): six months alcohol feeding, then one month of intervention in normal liquid feed. Conditions: one month intervention after six months alcohol; for proportion of fat deposition in the total liver area (oil red O staining): non-intervention group 0.68, FIG. 16; for ALT level in serum: normal diet group 12.03, non-intervention group 44.84, FIG. 14. In kind it is in vivo, C57 mice. An excerpt:
(§1) This experiment used the Lieber-DeCarli alcoholic fatty liver modeling method. Lieber-DeCarli feed was purchased from Nantong Trophic Animal Feed High-Tech Co., Ltd. The specific method is as follows: C57 mice (purchased from TROPHIC Animal Feed High-Tech Co. Ltd, China, the same below) were fed with normal solid maintenance feed, adapted to the feeding environment for at least one week, then were fed with maltodextrin diet for a week of transition, and then fed with Lieber-DeCarli feed. The alcohol concentration of Lieber-DeCarli feed was 3% in the first week, and the alcohol concentration was increased by 0.5% every week until reaching an alcohol concentration of 5%. The animals were continued to be fed with feed containing 5% alcohol. C57 mice were fed with Lieber-DeCarli feed for 12 weeks to establish a model of alcoholic liver injury.
30 C57 mice were subjected to adaptive feeding for 1 week, and then randomly divided into a normal diet group (n=6) and an alcohol diet group (n=24) according to body weight. In the alcohol diet group, a mouse alcoholic liver injury model was established by feeding mice with Lieber-DeCarli feed for 24 weeks according to the method of Example 3. After the modeling was completed, the mice were randomly divided into 4 groups, namely the non-intervention group (EtOH(6m)+Normal(1m), n=6), the zinc glutathione intervention group (EtOH(6m)+Zn(GSH)2(1m), n=6), the zinc intervention group (EtOH(6m)+Zn(1m), n=6), and the glutathione intervention group (EtOH(6m)+GSH(1m), n=6). The remaining normal diet group was named the normal group (Normal (7m) group, n=5).
Different intervention substances were added to the normal liquid feed for 1 month. The feed of the zinc glutathione intervention group was added with Zn(GSH)2SO4 at an amount of 1 mg Zn per 10 mL of feed (GSH was 9.35 mg/10 mL) for one month of intervention. The feed of the zinc intervention group was added with ZnSO4 at an amount of 1 mg Zn per 10 mL of feed. The feed of the glutathione intervention group was added with glutathione at an amount of 9.35 mg GSH per 10 mL of feed.
(§2) At the end of the experiment in each group, the animals were weighed, blood was collected, and materials were collected.
(§3) Blood collection: orbital blood collection was performed.
Liver: The animals were killed by cervical dislocation. The mice were cut along the midline of the abdomen to expose the abdomen and the liver was then peeled off. The intact liver was peeled off and separated into the different lobes.
Tissue distribution of each lobe of the liver: The left lobe was separated into three sections and the right lobe was separated into two sections. The first sections of the left lobe and right lobe were used to make pathological sections for histological examination. The second sections of the left lobe and right lobe were used for zinc measurement. The remaining third section of the left lobe was stored in liquid nitrogen for analysis such as molecular detection.
Biochemical analysis of serum: Alanine aminotransferase (ALT) in blood samples was analyzed using a colorimetric method.
Oil red O staining of frozen sections: Frozen sections were stained with ORO stain solution and the nuclei were counterstained with hematoxylin. […] The area of the ORO positive area was measured using Image Pro-Plus 6.0 software, and the ratio of the positive area to the total area was calculated.
(§4) Data processing and statistical analysis: All experimental data herein were analyzed using GraphPad Prime 6 statistical analysis software. Student t test was used for single factor analysis between two groups, and p<0.05 was considered to be statistically different.
Determination method: After blood was collected, the collected whole blood was placed at 25° C. for 30 minutes. After the blood coagulated, it was centrifuged at 3500 rpm for 15 minutes to separate the serum, and various parameters were measured timely. […]

The test system is the same in series [2]. Nature of the series: Effect of product (a) on alcoholic liver injury (Example 4): Lieber-DeCarli alcohol diet, three months of intervention. The format is in vivo, C57 mice.
From the text: as §1
30 C57 mice were subjected to adaptive feeding for 1 week, and then randomly divided into a normal diet group (n=9) and an alcohol diet group (n=21) according to body weight. In the alcohol diet group, a mouse alcoholic liver injury model was established by feeding mice with Lieber-DeCarli feed for 12 weeks according to the method of Example 3. After the modeling was completed, the mice were randomly divided into 3 groups, one of which was the pre-intervention group (EtOH (3m), n=3) (meanwhile, 4 animals were randomly selected from the normal diet group to be control of the pre-intervention group (Normal (3m) group, n=4). The pre-intervention group and the pre-intervention control group were collected immediately after the modeling was completed. The other two groups were the non-intervention group (EtOH (6m), n=10), and the zinc/glutathione intervention group (EtOH(6m)/Zn(GSH)2(3m), n=8) respectively. The remaining normal diet group was named the normal group (Normal (6m) group, n=5).
Zn(GSH)2·SO4 was added to the daily Lieber-DeCarli alcohol diet at the amount of 1 mg Zn/10 mL of feed for three months of invention.
as §2, §3
Liver: The animals were killed by cervical dislocation. The mice were cut along the midline of the abdomen to expose the abdomen and the liver was then peeled off. The intact liver was peeled off and separated into the different lobes. The left lobe was separated into three sections using a blade, and the right lobe was separated into two sections.
Tissue distribution of each lobe of the liver: The left lobe was separated into three sections and the right lobe was separated into two sections. The first sections of the left lobe and right lobe were used to make pathological sections for histological examination. The second sections of the left lobe and right lobe were used for zinc measurement. Other lobes were stored in liquid nitrogen for analysis such as molecular detection. […]
Measurement of zinc concentration: The zinc concentration in liver tissue was determined using atomic absorption spectrometry (atomic absorption spectrometer: ICE3500, Thermo Company).
as §4

[3] abbreviates: EtOH(6 m)/Zn(GSH)2 group, end of experiment.

Turning to `N[C@@H](CCC(=O)N[C@@H](CS)C(=O)NCC(=O)O)C(=O)O` [glutathione, N-(N-L-γ-glutamyl-L-cysteinyl)-glycine], in series [1], the “ALT level relative to the zinc glutathione intervention group” value is “about 2 times”, the “proportion of fat deposition in the total liver area (oil red O staining)” value is 0.62 and the “ALT level in serum” value amounted to 22.86.
In the same order, the values of `O=S(=O)([O-])[O-].[Zn+2]` [zinc, ZnSO4] are “about 2 times”, 0.36 and 22.03.
On to [Zn^2+(L-GSH)2]·SO4^2− [Zn(GSH)2·SO4], for which, in series [1], the “proportion of fat deposition in the total liver area (oil red O staining)” value is 0.21 and the “ALT level in serum” value is given as 8.96. Also, the “fat deposition (oil red O staining of liver)” value in series [2] (EtOH(6m)/Zn(GSH)2(3m) vs non-intervention group, FIG. 9) was “significantly improved”. Moreover, in series [2] (setting [3]), the Liver weight turned out to be 1.26 ± 0.25 g and the “Liver weight/final body weight” value was 5.62 ± 0.80%. Also, the Final body weight in series [2] (EtOH(6 m)/Zn(GSH)2 group, end of experiment, average) stood at 22.53 ± 1.67 g. In addition, the survival rate result in series [2] (alcohol-fed mice, intervention after modeling, 1 mg Zn/10 mL feed, FIG. 8) is “significantly increased”. For the same compound, in series [2] (atomic absorption spectrometry, intervention group, FIG. 12), the “zinc content in the liver” value is “significantly increased”. For the same compound, the “area of fat deposition (percentage of fat deposition in the total liver area)” value in series [2] (oil red O staining, vs non-intervention group, FIG. 10) is “significantly reduced”. Besides, the “vesicular steatosis (HE staining)” value in series [2] (vs non-intervention group, FIG. 11) is “significantly reduced”.
